Results on one compound are retold here after article PMC10275055, “Preventing recurrence in Sonic Hedgehog Subgroup Medulloblastoma using the OLIG2 inhibitor CT-179” (Research Square, 2023).

One series concerns Daoy MB cell line. The series can be described thus: Cell viability, 7 days treatment, Daoy. The series is classed as cell-based. Conditions: Homo sapiens, 168 h. How it is done:
Cell proliferation was determined by a CellTiter 96® Non-Radioactive Cell Proliferation Assay (Promega) kit. Absorbance at 490 nm was measured on a Biotek PowerWave (Biotek, USA) plate scanner to obtain raw data. Average absorbance from triplicate wells were plotted against concentration using GraphPad Prism software v.7.0 (GraphPad software). At the indicated time points, cells were stained using FITC-conjugated Annexin V and Annexin V binding buffer (BD Pharmingen™) according to the manufacturer’s instructions. Annexin V or propidium iodide (PI)-positive cells were analyzed using a Fortessa 5 Flow Cytometer (Becton Dickinson) and data was analyzed using FlowJo® software (Tree Star).

Series [1] has as its system OLIG2-driven transcription (human LHX8 promoter). The series can be described thus: LHX8 promoter luciferase reporter assay in Daoy cells. The series is classed as cell-based. The following applies: OLIG2 overexpression, 250 nM, 24 hours. The source says: Promoter region of human LHX8 was amplified by PCR from human genomic DNA extracted from Med-813luci cells with primers shown in STAR METHODS. The promoter region was inserted into the pGL3-Basic luciferase-reporter vector (Promega). Flag-OLIG2 were synthesised as a gBlock flanked by the Nhel and BamHI restriction enzyme sites (Integrated DNA Technologies, Singapore). The gBlock was restriction digested and ligated into the expression vector, pLEX_307 (a gift from Joseph Rosenbluh, Monash University, Australia) to form pLX307/FLAG-OLIG2. Firefly luciferase-reporter construct (300 ng, pGL3-Basic or pGL3-LHX8), pRL Renilla luciferase SV40 Control Reporter Vector (Promega, 50 ng), and pLX307/Flag-OLIG2 (300 ng) or pLX307/empty vector (300 ng) were reverse co-transfected with Daoy cells (1 × 10^5/well) in 24-well plates using Lipofectamine™ 3000 (Invitrogen). CT-179 (250 nM) was added and incubated for 24 hours. The luciferase activity was examined using Dual-Glo® Luciferase Assay System (Promega) according to the manufacturer’s instructions, and the signal was normalised to vector controls.

Series [2] can be described thus: G-Smo GEM model of SHH-MB: tolerability, pharmacodynamics, survival. The following applies: mouse, in vivo, ip, read-out: maximum tolerated dose (MTD). The series is classed as in vivo, mice. How it is done: (§1) Medulloblastoma-bearing mice were maintained at UNC in accordance with UNC IACUC protocols 19–098 and 21–011 and at QIMR under protocol 1572 and 2324. Specimens were examined by a neuropathologist to verify tumor type and grade.
(§2) Post-natal P10 G-Smo mice were injected IP with CT-179 (80 mg/kg), or POx-Palbo (25 mg/kg, every day from P10 to P13), or combination (CT-179 + POx-Palbo, EOD from P14) or saline control solution and tumors were harvested after 6 or 24 hours. EdU (40 mg/kg) was administered IP 30 minutes before harvest. Tumors were dissociated using the Worthington Papain Dissociation System Kit, then fixed for 15 minutes on ice and washed with FACS Wash buffer (2% FBS in PBS). Fixed cells were stained with fluorophore markers for DNA (FX Cycle stain, Thermo Fisher Scientific), EdU (Click-it Edu Kit, Thermo Fisher Scientific), and phospho-RB content (phospho-RB^Ser807/811, Cell Signalling Technology) as previously described. Stained cells were resuspended in sheath fluid and ran on LSR II flow cytometer for 50000 events at the UNC Flow Cytometry core, using appropriate compensation controls and analyzed using FlowJo® software (Tree Star).
(§3) Brains including tumors from G-Smo mice were harvested, fixed in 4% paraformaldehyde for 48 hours, and embedded in paraffin at the UNC Centre for Gastrointestinal Biology and Disease Histology core. Sections were deparaffinised, and antigen retrieval was performed using a low-pH citric acid-based buffer. Staining was performed and stained slides were digitally scanned using the Leica Biosystems Aperio ImageScope software (12.3.3) by the UNC Translational Pathology Laboratory, as in prior studies. The primary antibodies used were anti-NeuN (Cell Signalling Technology) anti-OLIG2 (Cell Marque) and anti-SOX10 (Cell Signalling Technology) and anti-cleaved caspase-3 (Biocare).
(§4) In vitro experiments - all data represent the means ± standard deviation (SD) or standard error of the mean (SEM) as indicated. Where appropriate, two-tailed Student’s t-test or ANOVA were used to determine the probability of difference (*p < 0.05, ** p < 0.01, ***p < 0.001). In vivo experiments - the log-rank (Mantel-Cox) test was used to determine the survival significance of survival differences between treatment groups (*p < 0.05, ** p < 0.01, ***p < 0.001). Kaplan-Meier survival curves were generated using GraphPad Prism v. 7.0 software (GraphPad software).

The test system of series [3] is SHH-MB in Gfap-Cre/SmoM2 (G-Smo) mice. The series is described as above. It counts as in vivo. How it is done:
as §1, §2, §3, §4

Setting [4] is: 80 mg/kg at P10, P12, P14 and P16, 24 hours after last dose.

Where two headings read alike, the source gives them in different places.

As for `Cc1cc(NCCCN(C)C)nc(NC(=O)Nc2ccc(Cl)c(Cl)c2)n1` [CT-179], the IC50 in the series with Daoy MB cell line is 144 nM. For the same compound, the “luciferase expression (LHX8 promoter reporter)” value in series [1] is on record as “significantly decreased”. Also, in series [2] (EOD), the MTD was determined as 80 mg/kg. Also, in series [2] (every three days), the MTD came to 100 mg/kg. Further, in series [3] (setting [4]), the “p-OLIG2 in tumors, western blot” value is listed as “decreased p-OLIG2” and the “p-RB in tumors, western blot” value is given as “reduced p-RB”. Moreover, in series [3] (IP 80 mg/kg EOD, 80 mg/kg every three days, or 100 mg/kg every three days, from P10), the EFS versus control entry is on record as “significantly improved EFS”. The “BLI signal in G-Smo Gli-luc mice” value in series [3] (administered every three days) is reported as “dose-dependent decrease in BLI signal”.
